Values of other authors in patent publication US6451782B1, “Use of 4-androstene-3alpha,17 beta-diol to increase testosterone levels in humans” (priority 2002, dated 2002).
Like-named read-outs stand apart in the source and are kept apart here.

Legend:
[1] = in-vitro, rat liver preparations
[2] = humans, intravenous, radio-labeled, urinary metabolites
[3] = humans
[4] = in-vitro, chicken liver preparations

C[C@]12CC[C@H]3[C@@H](CCC4=CC(O)CC[C@@]43C)[C@@H]1CC[C@@H]2O (stereo partly drawn) [4-androstene-3,17beta-diol]
identified metabolites [1]: androstenedione, epitestosterone and testosterone | metabolic relationship to testosterone [2]: direct precursor relationship to testosterone | time to peak concentration of active hormone (testosterone) ([3]; after administration of the precursor): ≤ 90 min | period over which testosterone concentrations subsequently decline ([3]; after the peak): three to four | identified metabolites [4]: androstenedione, epitestosterone and testosterone

C[C@]12CC[C@H]3[C@@H](CCC4=C[C@H](O)CC[C@@]43C)[C@@H]1CC[C@@H]2O [4-androstene-3alpha, 17beta-diol]
identified metabolites [1]: androstenedione, epitestosterone and testosterone | metabolic relationship to testosterone [2]: direct precursor relationship to testosterone | pathway of metabolism to androstane metabolites [2]: involved first its conversion to a 3-keto steroid | identified metabolites [4]: androstenedione, epitestosterone and testosterone
